Five compounds from patent US12180193B2, “Accelerating fibrosarcoma protein degrading compounds and associated methods of use” (Arvinas Operations, Inc., priority 2020, dated 2024) can be followed below.

A value given as a limit tells only on which side of the number the result lay.

In assay [1] the target is T1, BRAF V600E (Homo sapiens, UniProt P15056, V600E).
T1 construct: expressed in transfected cells
In words: Cellular assay of target protein degradation, T-Rex 293 cells stably transfected with HA-BRAF_V600E (HA immunofluorescence, high content imaging). Format: cell-based. The note with it: T-Rex 293 HA-BRAF V600E; for DC50: half maximal degradation, read-out: BRaf V600E DC50; for Dmax: maximum degradation observed. Summed up: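 HA immunofluorescence on fixed cells, imaged by high-content reader, measured loss of HA-BRAF V600E in stably transfected T-Rex 293 cells induced with 1 ng/mL doxycycline. Compounds were applied for 24 h at 37 °C (final 0.1 nM–1 μM, 0.1% DMSO); DC50 and Dmax (% of control) were reported.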

The target of assay [2] is T2, BRAF G466V (Homo sapiens, UniProt P15056, G466V).
T2 construct: expressed in transfected cells
The assay can be described thus: Cellular assay of target protein degradation, T-Rex 293 cells stably transfected with HA-BRAF G466V (HA immunofluorescence, high content imaging). To be noted: T-Rex 293 HA-BRAF G466V; for DC50: half maximal degradation, read-out: BRaf G466V DC50; for Dmax: maximum degradation observed. Format: cell-based. Summed up: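 HA-BRAF G466V levels were read by HA immunofluorescence and high-content imaging after 24 h compound exposure (final 30 nM–3 pM, 0.1% DMSO, 37 °C). Expression was induced with 0.75 ng/mL doxycycline. Outputs: half-maximal degradation concentration (DC50) and maximal degradation (Dmax) relative to control.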

T1 sequence (P15056 whole entry V600E): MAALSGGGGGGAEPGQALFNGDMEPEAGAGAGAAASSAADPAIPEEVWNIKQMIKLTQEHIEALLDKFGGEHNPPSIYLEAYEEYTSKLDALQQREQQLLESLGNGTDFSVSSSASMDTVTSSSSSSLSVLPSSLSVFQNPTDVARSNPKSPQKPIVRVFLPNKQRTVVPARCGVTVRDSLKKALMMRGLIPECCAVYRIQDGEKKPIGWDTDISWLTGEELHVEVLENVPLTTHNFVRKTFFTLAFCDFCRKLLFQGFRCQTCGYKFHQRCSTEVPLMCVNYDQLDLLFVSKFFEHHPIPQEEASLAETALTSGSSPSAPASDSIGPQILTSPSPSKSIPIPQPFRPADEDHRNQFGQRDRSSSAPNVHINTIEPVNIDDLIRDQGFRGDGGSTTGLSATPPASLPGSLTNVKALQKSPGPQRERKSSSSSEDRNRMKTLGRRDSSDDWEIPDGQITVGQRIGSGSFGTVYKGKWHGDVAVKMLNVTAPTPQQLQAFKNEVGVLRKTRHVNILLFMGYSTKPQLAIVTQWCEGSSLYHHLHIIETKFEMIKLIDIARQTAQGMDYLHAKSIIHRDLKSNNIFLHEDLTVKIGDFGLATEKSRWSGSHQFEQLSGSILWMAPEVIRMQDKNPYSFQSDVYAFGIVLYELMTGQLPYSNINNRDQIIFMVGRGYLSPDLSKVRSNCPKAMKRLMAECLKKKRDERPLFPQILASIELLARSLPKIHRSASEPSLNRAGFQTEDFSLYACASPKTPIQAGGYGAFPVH
T2 sequence (P15056 whole entry G466V): as the sequence (P15056 whole entry V600E) above, with G466V, E600V counted along it

As for `COc1cc(N2CC3(CN(CC4CCN(c5ncc(-c6cnc7[nH]cc(C(=O)c8c(F)ccc(NS(=O)(=O)N9CC[C@@H](F)C9)c8F)c7c6)cn5)CC4)C3)C2)cc2c1C(=O)N(C1CCC(=O)NC1=O)C2` (stereo partly drawn) [Compound 134, (3R)-N-[3-(5-{2-[4-({6-[2-(2,6-dioxopiperidin-3-yl)-7-methoxy-1-oxo-2,3-dihydro-1H-isoindol-5-yl]-2,6-diazaspiro[3.3]heptan-2-yl}methyl)piperidin-1-yl]pyrimidn-5-yl}-1H-pyrrolo[2,3-b]pyridine-3-carbonyl)-2,4-difluorophenyl]-3-fluoropyrrolidine-1-sulfonamide], in assay [1], the DC50 was in the range of 5 to 50 nM and the Dmax lay in the range of 35 to 70%. Further, in assay [2], the DC50 was below 1 nM and the Dmax is above 70%.

On to `O=C1CCC(N2Cc3cc(N4CCN(CCCC5CCN(c6ccc(-c7cnc8[nH]cc(C(=O)c9c(F)ccc(NS(=O)(=O)N%10CC[C@@H](F)C%10)c9F)c8c7)cc6)CC5)CC4)ccc3C2=O)C(=O)N1` (stereo partly drawn) [Compound 135, (3R)-N-[3-(5-{4-[4-(3-{4-[2-(2,6-dioxopiperidin-3-yl)-1-oxo-2,3-dihydro-1H-isoindol-5-yl]piperazin-1-yl}propyl)piperidin-1-yl]phenyl}-1H-pyrrolo[2,3-b]pyridine-3-carbonyl)-2,4-difluorophenyl]-3-fluoropyrrolidine-1-sulfonamide], for which, in assay [1], the DC50 was in the range of 5 to 50 nM and the Dmax fell in the range of 35 to 70%. In assay [2], the 50% degradation concentration (DC50) fell in the range of 1 to 10 nM and the Dmax is above 70%.

Take `O=C1CCN(c2ccc(N3CCN(CCc4ccc(-c5cnc6[nH]cc(C(=O)c7c(F)ccc(NS(=O)(=O)N8CC[C@@H](F)C8)c7F)c6c5)cc4)CC3)cc2F)C(=O)N1` [Compound 136, (3R)-N-(3-{5-[4-(2-{4-[4-(2,4-dioxo-1,3-diazinan-1-yl)-3-fluorophenyl]piperazin-1-yl}ethyl)phenyl]-1H-pyrrolo[2,3-b]pyridine-3-carbonyl}-2,4-difluorophenyl)-3-fluoropyrrolidine-1-sulfonamide]: the figures for the DC50 in assay [1] and in assay [2] were 50 to 500 nM and above 30 nM, respectively. Further, in assay [1], the Dmax is below 35%.

Turning to `O=C1CCC(N2Cc3cc(N4CCC(CCCN5CCN(c6ccc(-c7cnc8[nH]cc(C(=O)c9c(F)ccc(NS(=O)(=O)N%10CC[C@@H](F)C%10)c9F)c8c7)cc6)CC5)CC4)ccc3C2=O)C(=O)N1` (stereo partly drawn) [Compound 137, (3R)-N-[3-(5-{4-[4-(3-{1-[2-(2,6-dioxopiperidin-3-yl)-1-oxo-2,3-dihydro-1H-isoindol-5-yl]piperidin-4-yl}propyl)piperazin-1-yl]phenyl}-1H-pyrrolo[2,3-b]pyridine-3-carbonyl)-2,4-difluorophenyl]-3-fluoropyrrolidine-1-sulfonamide], in assay [1], the DC50 lay within 5 to 50 nM and the Dmax fell in the range of 35 to 70%. Moreover, in assay [2], the DC50 was 1 to 10 nM and the Dmax was above 70%.

`O=C1CCC(N2Cc3cc(OCCCOC4CCN(c5ccc(-c6cnc7[nH]cc(C(=O)c8c(F)ccc(NS(=O)(=O)N9CC[C@@H](F)C9)c8F)c7c6)cc5)CC4)ccc3C2=O)C(=O)N1` (stereo partly drawn) [Compound 139, (3R)-N-[3-(5-{4-[4-(3-{[2-(2,6-dioxopiperidin-3-yl)-1-oxo-2,3-dihydro-1H-isoindol-5-yl]oxy}propoxy)piperidin-1-yl]phenyl}-1H-pyrrolo[2,3-b]pyridine-3-carbonyl)-2,4-difluorophenyl]-3-fluoropyrrolidine-1-sulfonamide]: in assay [1], the DC50 fell in the range of 50 to 500 nM and the Dmax lay in the range of 35 to 70%. In addition, in assay [2], the DC50 is 1 to 10 nM and the Dmax was above 70%.

As usually defined, the DC50 is the concentration giving 50% degradation. As a reminder, the Dmax is the largest share of the target that was removed.
